Series [1] can be described thus: Solubility of the compound at pH 7. It is filed as physicochemical. Conditions: buffer.
Series [2] can be described thus: Solubility of the compound at pH 2. It is filed as physicochemical. To be noted: buffer.

For `O=C(Cn1c(=O)[nH]c2ncc(-c3cccc(C(F)(F)F)c3)cc21)NC1CC1`, the solubility in series [1] and in series [2] was below 4 µM each time.

What is called solubility is the dissolved amount per volume that the medium holds. A higher solubility goes with much dissolved substance.

Source of the values: ChEMBL document CHEMBL4339196, “1H-Pyrrolo[3,2-b]pyridine GluN2B-Selective Negative Allosteric Modulators” (ACS Med Chem Lett, 2019).
